# Laboratory results: article PMC3359661, “FK228 Analogues Induce Fetal Hemoglobin in Human Erythroid Progenitors” (Anemia, 2012)
# “And” between values parts separate entries of the source, which are not always exact repeats. Identical values can stand only once.
# Assays:
# [1] = tested on: γ-globin promoter activity in KU812-γF/βR stable lines; test: KU812 dual-luciferase reporter stable lines (μLCRβprRluc AγprFluc), γ-globin promoter activity; assay type: cell-based, human; settings: 48 hr; for Fold change (γ/γ + 2β): untreated normalized to one
# Source text: KU812 stable cell lines were created by co-transfecting wild-type KU812 cells with pEGFP-NI (G418 selectable marker) and theμLCRβ prRluc ^A γ prFluc dual-reporter a kind gifts from Dr. George Stamatoyannopoulos (University of Washington). […] Likewise, 1.4 kb of human Aγ-globin promoter was inserted upstream of firefly luciferase to create ^A γ prFluc. The μLCR (locus control region), Pβ prRluc, and ^A γ prFluc fragments were subsequently cloned into the mammalian vector, pRL-null.
# After 72 hr, G418 was added at a concentration of […] for 3 days then maintained under selection pressure indefinitely at a concentration of […]. KU812 stable lines were treated with the various drugs at the same concentrations described above. FK228 and analogues were screened at concentrations between 1–1000 nM for 48 hr and cell toxicity was monitored by 2% Trypan blue exclusion. The effect of drug treatments on γ-globin and β-globin promoter activity was monitored by luciferase assay.
# Luciferase activity was monitored under the different experimental conditions using the Dual Luciferase Assay Reporter System (Promega, Madison, WI). The activity of firefly luciferase represents γ-globin promoter activity (γF), while the renilla luciferase is the read-out for β-globin promoter activity (βR). The β-globin promoter was strategically cloned between the LCR and γ-globin promoter to increase β expression, while simultaneously increasing the sensitivity of detection of γ-globin gene inducers.
# After drug treatments, KU812 stable cells were washed with 1X phosphate buffered saline and lysed in 1X Passive Lysis Buffer for 15 min, then protein extracts were added to the Luciferase Assay Reagent II and firefly luciferase activity quantified in a Turner Designs TD-20/20 luminometer (Sunnyvale, CA). To measure βR activity, Stop & Glo Reagents was added to measure the renilla luciferase activity. Total protein was determined by Bradford assay on a Beckman DU 640 spectrophotometer (Chaska, MN) and luciferase activity was corrected for total protein.
# Subsequently, three independent dual-luciferase reporter KU812 stable cell lines were established to analyze the ability FK228 analogues to induce γ-globin promoter activity without an effect on β-globin transcription. […] Since the firefly luciferase gene (γF) has approximately […] luminescence than the renilla gene (βR), the renilla activity was multiplied by two to adjust for the difference in luminescence yielding the γ/γ+2β final measurement. The FK228 analogues were examined at concentrations ranging from 1–1000 nM in the three stable lines. After 48-hour treatments, cells were harvested and protein isolated for luciferase activity using the Dual Luciferase Reporter Assay.
# [2] = tested on: HbF levels in primary erythroid cells; test: HbF ELISA in primary erythroid cells; assay type: cell-based, human
# Description: The two-phase liquid culture system was established as previously published by Fibach et al. using buffy coat mononuclear cells, purchased from Carter Blood Care (Fort Worth, TX) in accordance with the guidelines of the Institutional Review Board at the University of Texas at Dallas. During phase 1, cells were grown in IMDM medium with 30% fetal bovine serum and 50 ng/mL each of the granulocyte-monocyte colony-stimulating factor, Interleukin-3, and stem cell factor. Subsequently, phase 2 was initiated on day 7 with the addition of erythropoietin (2 U/mL) and stem cell factor (50 ng/mL). The cells were treated on Day 11 with the different test compounds and harvested on Day 14 (72 hr incubation).
# Total hemoglobin was quantified using 20 μL of protein extract from one million KU812 cells mixed with 5 mL of Drabkin's reagent (Sigma); then cyanmethemoglobin was measured at the 540 nm wavelength. HbF levels were quantified using the human Hemoglobin F ELISA Quantitation Kit (Bethyl Laboratory, Montgomery, TX). Briefly, 96-well plates were coated with sheep anti-human HbF antibody (1 mg/mL). After blocking with 1% bovine serum albumin, horse radish peroxidase-conjugated secondary antibody (1 mg/mL) was added. Raw data were analyzed using GraphPad PRISM (GraphPad Software, Inc., La Jolla, CA) and HbF levels were calculated as a ratio of total hemoglobin corrected for total protein (HbF/total Hb/total protein).
substance,measurement,setting,value
FK228,γ/γ + 2β Mean,"[1]; Line 1, firefly (γ) / renilla (β) luciferase corrected for total protein, mean, conc: Cys 10 mM, Hemin 50 μM, SAHA 2000 nM, FK228 1.5 nM, 1127Ox 1000 nM, JMA1 1.5 nM, JMA2 1.0 nM, JMA12 1000 nM, JMA26 500 nM, JMA33 1000 nM, JMA112 100 nM, untreated 0.0402",0.1197
same,Fold change (γ/γ + 2β),"[1]; Line 1, concentrations as in E1",2.975
same,γ/γ + 2β Mean,"[1]; Line 2, concentrations as in E1, untreated 0.1573",0.6167
same,Fold change (γ/γ + 2β),"[1]; Line 2, concentrations as in E1",3.929
same,γ/γ + 2β Mean,"[1]; Line 3, concentrations as in E1, untreated 0.0721",0.1583
same,Fold change (γ/γ + 2β),"[1]; Line 3, concentrations as in E1",2.194
same,Fold change in HbF levels,"[2]; relative to untreated = 1, concentrations as in E7",2.4 fold and 2.454 fold
same,"Fetal hemoglobin quantification, Mean (HbF/total Hb/total protein)","[2]; treated Day 11, harvested Day 14, conc: Cys 10 mM, Hemin 50 μM, SAHA 2000 nM, FK228 1.5 nM, JMA1 1.5 nM, JMA2 1.0 nM, JMA26 500 nM, JMA33 1000 nM, untreated 0.683",1.676
